Where a name gives a salt, the structure may show the parent alone.
What was measured:
[1] = Compatibility study of dissolved tofacitinib citrate with excipients, 60° C. seven days, HPLC; type: physicochemical; settings: 1 Week
Excerpt: The total degradation products in the mixtures were further analyzed by HPLC.

[2] = Solubility study of tofacitinib citrate in various solvents (HPLC); type: physicochemical; settings: for solubility: thermodynamic from solid
Experimental: A solubility study was conducted in the course of formulation development. The suspension was stirred overnight and filtered through 0.22 μm filter. The filtrate was diluted into suitable concentration.

C[C@@H]1CCN(C(=O)CC#N)C[C@@H]1N(C)c1ncnc2[nH]ccc12 [Tofacitinib Citrate, 3-((3R,4R)-4-methyl-3-[methyl-(7H-pyrrolo[2,3-d]pyrimidin-4-yl)-amino]-piperidin-1-yl)-3-oxopropionitrile]
Total Degradation Products [1]: 0.06% | Solubility Descriptive Term ([2]; 0.1N HCl): Sparingly | solubility ([2]; 0.1N HCl, simulated gastric fluid): 23900 µg/mL | Solubility Descriptive Term ([2]; Dimethyl sulfoxide (DMSO)): Freely soluble | Solubility Descriptive Term ([2]; Dimethyl sulfoxide (DMSO), listed as tofacitinib citrate): freely soluble | Solubility Descriptive Term ([2]; Ethanol): Very slightly | Solubility Descriptive Term ([2]; Ethanol, listed as tofacitinib citrate): very slightly soluble | Solubility Descriptive Term ([2]; H2O): Slightly soluble | Solubility Descriptive Term ([2]; H2O, listed as tofacitinib citrate): slightly soluble | Solubility Descriptive Term ([2]; Propylene Glycol (PG)): Slightly soluble | Solubility Descriptive Term ([2]; Propylene Glycol (PG), listed as tofacitinib citrate): slightly soluble | solubility ([2]; aqueous buffer, pH 3.0, 50 mM Citrate Buffer): 600 µg/mL | solubility ([2]; aqueous buffer, pH 4.5, 50 mM Acetate Buffer): 1810 µg/mL | solubility ([2]; aqueous buffer, pH 6.8, 50 mM Phosphate Buffer): 120 µg/mL | solubility ([2]; aqueous buffer, pH 7.5, 50 mM Phosphate Buffer): 120 µg/mL | solubility ([2]; aqueous buffer, pH 9.0, 50 mM Phosphate Buffer): 120 µg/mL | solubility ([2]; aqueous with cosolvent or surfactant or cyclodextrin, pH 4.5, 50 mM Acetate Buffer/PEG300 = 70/30): 3160 µg/mL | solubility ([2]; aqueous with cosolvent or surfactant or cyclodextrin, pH 7.5, 50 mM Phosphate Buffer/PEG300 = 70/30): 1590 µg/mL | solubility ([2]; dimethyl sulfoxide (DMSO), organic solvent or mixture): > 100000 µg/mL | solubility ([2]; ethanol, organic solvent or mixture): 480 µg/mL | Solubility Descriptive Term ([2]; pH 3.0, 50 mM Citrate Buffer): Very slightly | Solubility Descriptive Term ([2]; pH 4.5, 50 mM Acetate Buffer): Slightly soluble | Solubility Descriptive Term ([2]; pH 4.5, 50 mM Acetate Buffer/PEG300 = 70/30): Slightly soluble | Solubility Descriptive Term ([2]; pH 6.8, 50 mM Phosphate Buffer): Very slightly | Solubility Descriptive Term ([2]; pH 7.5, 50 mM Phosphate Buffer): Very slightly | Solubility Descriptive Term ([2]; pH 7.5, 50 mM Phosphate Buffer/PEG300 = 70/30): Slightly soluble | Solubility Descriptive Term ([2]; pH 9.0, 50 mM Phosphate Buffer): Very slightly | solubility ([2]; propylene glycol (PG), organic solvent or mixture): 1920 µg/mL | solubility ([2]; water, H2O): 3000 µg/mL
